Source: US20240317748A1, “CARBONYL SUBSTITUTED DIAZASPIRO COMPOUNDS AND ITS USE” (BIONOVA PHARMACEUTICALS (SHANGHAI) LIMITED, priority 2021, published 2024)

How the values were obtained:
Menin-MLL1 = target: T1, Menin-MLL1 (Homo sapiens, UniProt O00255); assay: Menin-MLL1 inhibition assay (fluorescence polarization, Menin protein + FAM-MLL peptide); assay type: binding; details: Menin (2-610) isoform 2, FAM-labelled MLL peptide, mP readout; read-out: Biochemical assay Menin-MLL1 IC50
T1 construct: Menin (2-610) isform2; purchased ChemPartner 2020111101
T1 sequence (O00255 2-610): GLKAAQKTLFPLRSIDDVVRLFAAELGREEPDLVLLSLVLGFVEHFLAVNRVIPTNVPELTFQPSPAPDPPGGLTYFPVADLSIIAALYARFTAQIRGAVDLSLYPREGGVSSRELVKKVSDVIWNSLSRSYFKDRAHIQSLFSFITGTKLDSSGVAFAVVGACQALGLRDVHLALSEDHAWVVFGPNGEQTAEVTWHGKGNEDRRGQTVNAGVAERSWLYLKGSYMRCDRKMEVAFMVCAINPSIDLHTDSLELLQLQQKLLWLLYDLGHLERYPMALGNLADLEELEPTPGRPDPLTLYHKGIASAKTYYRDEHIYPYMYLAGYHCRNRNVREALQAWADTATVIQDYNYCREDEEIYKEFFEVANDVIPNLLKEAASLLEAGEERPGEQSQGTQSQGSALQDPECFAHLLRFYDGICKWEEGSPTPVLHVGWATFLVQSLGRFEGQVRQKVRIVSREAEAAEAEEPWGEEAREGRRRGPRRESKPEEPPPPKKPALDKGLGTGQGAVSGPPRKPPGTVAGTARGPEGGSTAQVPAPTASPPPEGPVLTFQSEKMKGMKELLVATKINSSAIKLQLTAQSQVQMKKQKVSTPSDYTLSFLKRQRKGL
Method: 1× assay bu9ffer (Tris 7.5 50 mM, NaCl 50 mM, DTT 1 mM, Tween-20 0.01%) was prepared and test compounds solution (10 mM in DMSO, Sigma, Cat. No. 34869) were transferred to assay plate (384-well plate, Perkin Elmer, Cat. No. 6007279) by Echo. The final fraction of DMSO is 1%. 20 nM of Menin protein (Menin (2-610) isform2, ChemPartner, Cat. No. 2020111101) in 1× assay buffer was added to prepare 2× enzyme solution. Then 10 nM of MLL-peptide (Ac-SRWRFPARPGTGRR-Ahx-Ahx-K(FAM)-NH2, GL Biochem (Shanghai)), Cat. No. 833831/202009220104) in 1× assay buffer was added to prepare 2× substrate solution. 10 μL of 2× enzyme solution was transferred to assay plate or 10 μL of 1× assay buffer for low control group. 10 μL of 2× substrate solution was added to each well to start reaction. mP data on Envision (Ex480/Em535(s), Em535(p)) was collected.
Compound potencies were determined by first calculating % inhibition at each compound concentration according to equation 1:
Inhibition %=(Max−Signal)/(Max−Min)*100 (Equation 1)
Y=Bottom+(Top-Bottom)/(1+(IC50/X)[…]), where Y is % inhibition and X is compound concentration (Equation 2)

MV-4-11 cells = assay: Cell proliferation assay (CellTiter-Glo), MV-4-11; assay type: cell-based, human; details: Homo sapiens, MV4-11, 96 h; MV-4-11 (MLL-AF4), 4 days incubation; read-out: Cell antiproliferation assay MV-4-11 IC50
Method: The antiproliferative activity of test compounds was assessed in human leukemia cell lines. The cell line MV4-11, MOLM13 and OCI-AML3, which expresses the MLL fusion protein MLL-AF4, MLL-AF9 and carry the NPM1c gene mutation, respectively, were tested. HL-60 was used as a control cell line containing two MLL wildtype alleles in order to exclude compounds that display general cytotoxic effect. MV4-11 cells were cultured in IMDM supplemented with 10% FBS, MOLM13 and OCI-AML3 cells were cultured in RPMI1640 supplemented with 20% FBS, and HL-60 cells were cultured in IMDM supplemented with 20% FBS. Corresponding cells (MV4-11, MOLM13, OCI-AML3 or HL-60 cell line) were seeded in 100 uL medium per well in 96-well plate (white wall with clear bottom, tissue culture treated, Corning, Cat. No. CLS3903; Lot.No. 30419025). Plates were placed in the CO2 incubator overnight. Compounds solution (2 mM starting, 4-fold serial dilution) were prepared and added to the wells containing 100 μL of the culture medium with HPD300 according to the plate map and centrifuge at 1000 rpm for 1 minutes (200-fold dilution totally). MV4-11, MOLM13, OCI-AML3 and HL-60 cells were incubated with the compounds for 4, 12, 5 and 4 days, respectively, under 5% CO2 at 37° C., respectively. 100 μL of CellTiter-Glo reagent (Promega, Cat. No. G7573, Lot. No. 0000416710) was added to the assay plate by Multidrop Combi instrument, contents were mixed for 10 minutes on an orbital shaker to induce cell lysis. After incubation at room temperature for 10 mins, clear bottom with white back seal was pasted and luminescence with Envision was read.

SMILES	IC50 (Menin-MLL1) [nM]	IC50 (MV-4-11 cells) [nM]
CC[C@@H]1CCN[C@H]1C(=O)N1CCC2(CC1)CN(c1ncnnc1Oc1ccc(F)cc1C(=O)N(CC)C(C)C)C2 [Example 71]	16	1250
CCN(C(=O)c1cc(F)ccc1Oc1nncnc1N1CC2(CCN(C(=O)[C@H]3NCC[C@@H]3C3CC3)CC2)C1)C(C)C [Example 100a]	2.7	6.9
CCN(C(=O)c1cc(F)ccc1Oc1nncnc1N1CC2(CCN(C(=O)[C@@H]3NCC[C@H]3C(F)F)CC2)C1)C(C)C [Example 99b, 2-((5-(7-((2R,3R)-3-(difluoromethyl)pyrrolidine-2-carbonyl)-2,7-diazaspiro[3.5]nonan-2-yl)-1,2,4-triazin-6-yl)oxy)-N-ethyl-5-fluoro-N-isopropylbenzamide]	43	1930
CC(C)N(C(=O)c1cc(F)ccc1Oc1nncnc1N1CC2(CCN(C(=O)[C@@H]3C[C@@H](C)CN3)CC2)C1)C(C)C [Example 73]	4.1	22
CC1(C)[C@@H]2[C@@H](C(=O)N3CCC4(CC3)CN(c3ncnnc3Oc3ccc(F)cc3-c3ccc(C#N)nc3C3CC3)C4)NC[C@@H]21 [Example 95]	2.5	5.5
C[C@H]1COCCN1C(=O)c1cc(F)ccc1Oc1cncnc1N1CC2(CCN(C(=O)[C@@H]3C[C@@H](F)CN3)CC2)C1 [Example 53]	10.9	786
O=C([C@H]1NC[C@@H]2CCC[C@@H]21)N1CCC2(CC1)CN(c1ncnnc1Oc1ccc(F)cc1-c1ccc(=O)[nH]c1C1CC1)C2 [Example 106]	2	9.4
O=C([C@H]1NC[C@@H]2CCC[C@@H]21)N1CCC2(CC1)CN(c1ncnnc1Oc1ccc(F)cc1-c1cccnc1C1CC1)C2 [Example 103]	4.4	1.5
CC(C)N(C(=O)c1cc(F)ccc1Oc1nncnc1N1CC2(CCN(C(=O)[C@H]3NCC[C@H]3C)CC2)C1)C(C)C [Example 76]	3.7	16.7
CCN(C(=O)c1cc(F)ccc1Oc1nncnc1N1CC2(CCN(C(=O)[C@@H]3NCC[C@H]3C3CC3)CC2)C1)C(C)C [Example 100b]	11.7	284
CC(C)n1ncc(Cl)c1-c1cc(F)ccc1Oc1nncnc1N1CC2(CCN(C(=O)[C@@H]3C[C@@H](F)CN3)CC2)C1 [Example 75]	5.8	40.6
CCN(C(=O)c1cc(F)ccc1Oc1nncnc1N1CC2(CCN(C(=O)[C@@H]3CC(CC#N)CN3)CC2)C1)C(C)C (some centres unmarked) [Example 61]	6.1	153
CCN(C(=O)c1cc(F)ccc1Oc1nncnc1N1CC2(CCN(C(=O)[C@@H]3NC[C@@H](C)[C@H]3C)CC2)C1)C(C)C [Example 93]	24.8	457
CCN(C(=O)c1cc(F)ccc1Oc1nnc(Cl)nc1N1CC2(CCN(C(=O)[C@H]3NC[C@@H]4C[C@@H]43)CC2)C1)C(C)C [Example 91]	7.3	248
CCN(C(=O)c1cc(F)ccc1Oc1nncnc1N1CC2(CCN(C(=O)C3NC[C@H]4CC(F)(F)C[C@@H]34)CC2)C1)C(C)C (single isomer, unassigned) [Example 98c]	44.5	–

Next, values leading:

IC50 (Menin-MLL1) [nM]	IC50 (MV-4-11 cells) [nM]	SMILES
21	–	CCN(C(=O)c1cc(F)ccc1Oc1cncnc1N1CC2(CCN(C(=O)[C@@H]3CSCN3)CC2)C1)C(C)C [Example 52]
7	440	CCN(C(=O)c1cc(F)ccc1Oc1cncnc1N1CC2(CCN(C(=O)[C@@H]3C[C@@H](O)CN3)CC2)C1)C(C)C [Example 5]
6.3	128	CCN(C(=O)c1cc(F)ccc1Oc1cncnc1N1CC2(CCN(C(=O)[C@@H]3C[C@]4(CO)CC4N3)CC2)C1)C(C)C (some centres unmarked) [Example 11]
8.3	238	CCN(C(=O)c1cc(F)ccc1Oc1cncnc1N1CC2(CCN(C(=O)[C@@H]3C[C@@H](OC(F)F)CN3)CC2)C1)C(C)C [Example 10]
18.4	420	CCN(C(=O)c1cc(F)ccc1Oc1cncnc1N1CC2(CCN(C(=O)[C@@H]3C[C@@H](C#N)CN3)CC2)C1)C(C)C [Example 27, 2-((4-(7-((2S,4R)-4-cyanopyrrolidine-2-carbonyl)-2,7-diazaspiro[3.5]nonan-2-yl)pyrimidin-5-yl)oxy)-N-ethyl-5-fluoro-N-isopropylbenzamide]
4.8	170	CC(C)n1ncnc1-c1cc(F)ccc1Oc1cncnc1N1CC2(CCN(C(=O)[C@@H]3C[C@@H](F)CN3)CC2)C1 [Example 43]
3.4	36.1	CC(C)N(CC(F)F)C(=O)c1cc(F)ccc1Oc1cncnc1N1CC2(CCN(C(=O)[C@@H]3C[C@@H](F)CN3)CC2)C1 [Example 45]
4.5	19.3	CCN(C(=O)c1cc(F)ccc1Oc1cncnc1N1CC2(CCN(C(=O)[C@H]3NCc4ccccc43)CC2)C1)C(C)C [Example 33]
4.7	68.2	CCN(C(=O)c1cc(F)ccc1Oc1cncnc1N1CC2(CCN(C(=O)[C@@H]3C[C@](F)(CF)CN3)CC2)C1)C(C)C [Example 12]
5	40.2	CCN(C(=O)c1cc(Cl)ccc1Oc1cncnc1N1CC2(CCN(C(=O)[C@@H]3C[C@@H](F)CN3)CC2)C1)C(C)C [Example 19]
10.2	647	CCN(C(=O)c1cc(F)ccc1Oc1cncnc1N1CC2(CCN(C(=O)[C@@H]3COCCN3)CC2)C1)C(C)C [Example 26]
5	33.1	CCN(C(=O)c1cc(F)ccc1Oc1cncnc1N1CC2(CCN(C(=O)[C@@H]3CCCCN3)CC2)C1)C(C)C [Example 4]
7.7	494	CCN(C(=O)c1cc(F)ccc1Oc1cncnc1N1CCC2(CC1)CN(C(=O)[C@@H]1C[C@@H](F)CN1)C2)C(C)C [Example 46]
4	66	CCN(C(=O)c1ccccc1Oc1cncnc1N1CC2(CCN(C(=O)[C@@H]3C[C@@H](F)CN3)CC2)C1)C(C)C [Example 36]
15.4	–	CCN(C(=O)c1cc(F)ccc1Oc1cncnc1N1CC2(CCN(C(=O)[C@@H]3C[C@@H](F)CN3)C2)C1)C(C)C [Example 37]
13.5	–	CCN(C(=O)c1cc(F)ccc1Oc1cncnc1N1CC2(CCN(C(=O)[C@@H]3C[C@@H](NS(C)(=O)=O)CN3)CC2)C1)C(C)C [Example 18]
9.2	–	CCN(C(=O)c1cc(F)ccc1Oc1cncnc1N1CC2(CCN(C(=O)[C@@H]3CC(C)(O)CN3)CC2)C1)C(C)C (some centres unmarked) [Example 14]
55.2	–	CCN(C(=O)c1cc(F)ccc1Oc1cncnc1N1CC2(CCN(C(=O)[C@@H]3C[C@@H](S(C)(=O)=O)CN3)CC2)C1)C(C)C [Example 15]
22.3	–	CCN(C(=O)c1cc(F)ccc1Oc1cncnc1N1CC2(CCN(C(=O)[C@@H]3C[C@H](NS(C)(=O)=O)CN3)CC2)C1)C(C)C [Example 16]
16.7	–	CCN(C(=O)c1cc(F)ccc1Oc1cncnc1N1CC2(CCN(C(=O)[C@@H]3C[C@]4(COC)CC4N3)CC2)C1)C(C)C (some centres unmarked) [Example 13]
